According to ChEMBL document CHEMBL5257035, “Nucleoside Derived Antibiotics to Fight Microbial Drug Resistance: New Utilities for an Established Class of Drugs?” (J Med Chem, 2016):
Values after ≈ are worked out from the molar mass of the structure shown.

Key:
[1] = test system: Cutaneotrichosporon cutaneum; test: Antifungal activity against Trichosporon cutaneum 3071 assessed as reduction in microbial growth inhibition for 48 hrs by broth microdilution assay; type: functional
[2] = test system: Candida albicans; test: Antifungal activity against Candida albicans SC5314 assessed as reduction in microbial growth inhibition incubated for 48 hrs by broth microdilution assay; type: functional
[3] = test system: Pseudomonas aeruginosa; test: Antibacterial activity against Pseudomonas aeruginosa assessed as bacterial growth reduction; type: functional
[4] = test system: Coccidioides immitis; test: Antifungal activity against Coccidioides immitis assessed as reduction in fungal growth; type: functional
[5] = test system: Cryptococcus neoformans; test: Antifungal activity against Cryptococcus neoformans assessed as reduction in fungal growth; type: functional
[6] = test system: Candida albicans; test: Inhibition of Candida albicans chitin synthase at 1 uM relative to control
[7] = Inhibition of Bacterial MraY; parameters: species or system Bacteria
[8] = biological target: T1, Phospho-N-acetylmuramoyl-pentapeptide-transferase (Escherichia coli, UniProt E2QF15); test: Inhibition of MraY in Escherichia coli
T1 sequence (E2QF15 whole entry): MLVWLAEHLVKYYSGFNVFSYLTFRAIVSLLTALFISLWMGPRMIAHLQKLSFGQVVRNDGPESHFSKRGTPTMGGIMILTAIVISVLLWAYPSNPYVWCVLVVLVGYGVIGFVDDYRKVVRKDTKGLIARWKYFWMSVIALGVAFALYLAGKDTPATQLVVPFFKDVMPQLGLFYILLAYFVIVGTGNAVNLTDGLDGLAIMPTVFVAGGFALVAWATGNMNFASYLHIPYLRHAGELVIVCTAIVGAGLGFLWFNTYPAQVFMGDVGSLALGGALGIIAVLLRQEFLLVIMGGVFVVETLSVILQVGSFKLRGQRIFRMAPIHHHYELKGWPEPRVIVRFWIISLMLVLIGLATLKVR

[9] = biological target: T2, Phospho-N-acetylmuramoyl-pentapeptide-transferase (Escherichia coli K-12, UniProt P0A6W3); test: Inhibition of MraY in Escherichia coli K12
T2 sequence (P0A6W3 whole entry): T1 sequence (E2QF15 whole entry)

[10] = Cytotoxicity against human HepG2 cells assessed as reduction in cell viability incubated for 72 hrs by MTT assay; type: toxicity, cell-based
[11] = test system: Mycolicibacterium smegmatis; test: Antibacterial activity against Mycobacterium smegmatis SANK75075 assessed as bacterial growth inhibition; type: functional
[12] = test system: Staphylococcus aureus; test: Antibacterial activity against methicillin-resistant Staphylococcus aureus SR3637 assessed as reduction in bacterial growth inhibition; type: functional

For `NC(=O)OC[C@H](O)[C@@H](O)[C@H](N)C(=O)N[C@H](C(=O)NC(CCC(=O)O)C(=O)O)[C@H]1O[C@@H](n2cc(C=O)[nH]c2=O)[C@H](O)[C@@H]1O` (stereo not given in full), the MIC [1] was 256 µg/mL and the MIC [2] was over 256 µg/mL.
`C[C@@H]([C@H](NC(=O)[C@H](Cc1ccccc1)NC(=O)N[C@@H](Cc1c[nH]c2ccccc12)C(=O)O)C(=O)NCC1C[C@@H](O)[C@H](n2ccc(=O)[nH]c2=O)O1)N(C)C(=O)[C@@H](N)Cc1ccc(F)cc1` (stereo not given in full) gave an MIC [3] of 16 µg/mL (≈ 18.1 µM).
`N[C@@H](Cc1ccccc1)C(=O)N[C@H](C(=O)O)[C@@H]1C[C@@H](O)[C@@H](O)[C@H](n2ccc(=O)[nH]c2=O)O1` showed an MIC [4] of 0.25 µg/mL (≈ 0.557 µM) and an MIC [5] of 0.25 µg/mL (≈ 0.557 µM).
`NC(=O)[C@@H](O)[C@H](O)C(=O)NC[C@H]1O[C@@H](n2ccc(=O)[nH]c2=O)[C@H](O)[C@@H]1O` showed an inhibition [6] of 20%.
Work on `C[C@@H]([C@H](NC(=O)[C@H](Cc1ccccc1)NC(=O)N[C@@H](Cc1c[nH]c2ccccc12)C(=O)O)C(=O)NCC1C[C@@H](O)[C@H](n2ccc(=O)[nH]c2=O)O1)N(C)C(=O)[C@@H](N)Cc1ccc(O)cc1` (stereo not given in full) yielded an MIC [3] of 16 µg/mL (≈ 18.1 µM).
In the case of `O=C(NCCCNC(=O)[C@@H](O)[C@H](O)C(=O)NC[C@H]1O[C@@H](n2ccc(=O)[nH]c2=O)[C@H](O)[C@@H]1O)[C@@H](O)[C@H](O)C(=O)NC[C@H]1O[C@@H](n2ccc(=O)[nH]c2=O)[C@H](O)[C@@H]1O`, the inhibition [6] is reported as 10%.
Work on `O=C(NCCNC(=O)[C@@H](O)[C@H](O)C(=O)NC[C@H]1O[C@@H](n2ccc(=O)[nH]c2=O)[C@H](O)[C@@H]1O)[C@@H](O)[C@H](O)C(=O)NC[C@H]1O[C@@H](n2ccc(=O)[nH]c2=O)[C@H](O)[C@@H]1O` yielded an inhibition [6] of 5%.
For `NC[C@H]1O[C@@H](OC[C@H]2O[C@@H](n3ccc(=O)[nH]c3=O)[C@H](O)[C@@H]2O)[C@H](O)[C@@H]1O`, the IC50 [7] was 50 µM, the IC50 [8] was 25 µM and the IC50 [9] was 10 µM.
Work on `NC(=O)OC[C@H](O)[C@@H](O)[C@H](N)C(=O)N[C@H](C(=O)NC(CCC(=O)O)C(=O)O)[C@H]1O[C@@H](n2ccc(=O)[nH]c2=O)[C@H](O)[C@@H]1O` (stereo not given in full) yielded an MIC [1] of 256 µg/mL and an MIC [2] of over 256 µg/mL.
For `CCCCCCCCCCCCCCC[C@H](NC(=O)[C@@H](NC(=O)N[C@H](C(=O)O)C(C)C)[C@@H]1CCNC(=N)N1)C(=O)NCCCNC(C(=O)O)[C@H](O[C@@H]1O[C@H](CN)[C@@H](O)[C@H]1O)[C@H]1O[C@@H](n2ccc(=O)[nH]c2=O)[C@H](O)[C@@H]1O` (stereo not given in full), the IC50 at 72 h [10] was over 100 µg/mL.
`CCCCOc1ccc(-c2ccc(CC[C@@H](NC(=O)[C@@H](NC(=O)N[C@H](C(=O)O)C(C)C)[C@@H]3CCNC(=N)N3)C(=O)NCCCNC(C(=O)O)[C@H](O[C@@H]3O[C@H](CN)[C@@H](O)[C@H]3O)[C@H]3O[C@@H](n4ccc(=O)[nH]c4=O)[C@H](O)[C@@H]3O)cc2)cc1` (stereo not given in full) gave an IC50 at 72 h [10] of over 100 µg/mL.
With `CO[C@H]1[C@@H](O)[C@H](n2ccc(=O)[nH]c2=O)O[C@@H]1[C@@H](O[C@@H]1OC(C(=O)NCCCSC)=C[C@@H](O)[C@H]1O)C(N)=O` the MIC [11] was 12.5 µg/mL (≈ 22.9 µM).
Molecule `CCCCCCCCCCCCCC[C@@H](NC(=O)C(C)CCCNC(=N)N)C(=O)NC[C@@H]1C[C@H]2[C@@H](C(=O)N1)[C@@H]([C@H]1O[C@@H](n3ccc(=O)[nH]c3=O)[C@H](O)[C@@H]1O)ON2CCCN` (stereo not given in full) has an MIC [12] of 8 µg/mL (≈ 9.42 µM).
For `CCCCCCCCCCCCCC(=O)NC[C@@H]1C[C@H]2[C@@H](C(=O)N1CCCNC(=N)N)[C@H]([C@H]1O[C@@H](n3ccc(=O)[nH]c3=O)[C@H](O)[C@@H]1O)ON2CCCN`, the MIC [12] was 8 µg/mL (≈ 10.7 µM).
`CCCCCCCCCCCCCC[C@@H](NC(=O)C(C)CCCNC(=N)N)C(=O)NC[C@@H]1CC[C@H]2[C@@H](C(=O)N1)[C@H]([C@H]1O[C@@H](n3ccc(=O)[nH]c3=O)[C@H](O)[C@@H]1O)ON2CCCN` (stereo not given in full) showed an MIC [12] of 8 µg/mL (≈ 9.27 µM).
In the case of `C/C=C1\CN(C(=O)[C@@H](NC(=O)[C@@H](N)[C@H](O)[C@@H](O)COC(N)=O)[C@H]2O[C@@H](n3cc(CO)c(=O)[nH]c3=O)[C@H](O)[C@@H]2O)[C@H]1C(=O)O`, the MIC [1] is reported as 256 µg/mL and the MIC [2] is reported as over 256 µg/mL.
For `O=C(NC[C@H]1O[C@@H](n2ccc(=O)[nH]c2=O)[C@H](O)[C@@H]1O)[C@@H](O)[C@H](O)C(=O)NC[C@H]1O[C@@H](n2ccc(=O)[nH]c2=O)[C@H](O)[C@@H]1O`, the inhibition [6] was 35%.
Work on `CCCCCCCCCCCCCC[C@@H](NC(=O)C(C)CCCNC(=N)N)C(=O)NC[C@@H]1C[C@H]2[C@@H](C(=O)N1)[C@H]([C@H]1O[C@@H](n3ccc(=O)[nH]c3=O)[C@H](O)[C@@H]1O)ON2CCCN` (stereo not given in full) yielded an MIC [12] of 8 µg/mL (≈ 9.42 µM).
Molecule `NC(=O)[C@H](O)[C@@H](O)C(=O)NC[C@H]1O[C@@H](n2ccc(=O)[nH]c2=O)[C@H](O)[C@@H]1O` has an inhibition [6] of 12%.
